This is an account of results in ChEMBL document CHEMBL1156865, “Chemical delivery system of metaiodobenzylguanidine (MIBG) to the central nervous system” (J Med Chem, 2010).

In data set [1] the test system is Brain. Briefly: Drug uptake in Sprague-Dawley rat brain at 15 to 120 MBq, iv after 3 mins. The class given is ADME, organism-based. The conditions noted are these: in vivo, 0.05 h.
The nature of data set [2]: Stability in Sprague-Dawley rat blood at 10 MBq assessed as radioactive compound recovery. The class given is ADME, tissue-based. The conditions noted are these: whole blood, read-out: Stability.
In data set [3] the test system is Brain. Briefly: Drug uptake in Sprague-Dawley rat brain at 15 to 120 MBq, iv after 60 mins. The class given is ADME, organism-based. The conditions noted are these: in vivo, 1 h.
A short description of data set [4]: Stability in Sprague-Dawley rat brain assessed as unchanged parent compound level at 15 to 120 MBq, iv after 3 mins. The class given is ADME, organism-based. The conditions noted are these: read-out: Stability.
A short description of data set [5]: Stability in Sprague-Dawley rat brain assessed as unchanged parent compound level at 15 to 120 MBq, iv after 60 mins. The class given is ADME, organism-based. The settings on record: read-out: Stability.
Data set [6] has as its system Brain. The data set is described as follows: Stability in Sprague-Dawley rat brain assessed as polar radioactive metabolite level at 15 to 120 MBq, iv after 3 mins. The class given is ADME, organism-based. The settings on record: in vivo, 0.05 h.
The test system of data set [7] is Brain. Briefly: Stability in Sprague-Dawley rat brain assessed as polar radioactive metabolite level at 15 to 120 MBq, iv after 60 mins. The settings on record: in vivo, 1 h. The class given is ADME, organism-based.

As for `[11CH3]N1C=C(C(=O)NC(=N)NCc2cccc(I)c2)Cc2ccccc21`, the Drug uptake in data set [1] is 0.1 % ID/g; in data set [3], 0.06 % ID/g. Also, the remaining at 10 MBq in data set [2] was greater than 90%. Besides, the remaining at 0.05 h in data set [4] worked out at 96%. Moreover, the remaining at 1 h in data set [5] amounted to 59%. Moreover, the Activity came out at 4% in data set [6] and 41% in data set [7].
